Source: patent publication US7700584B2 (Hangzhou Minsheng Pharmaceuticals Co., Ltd., priority 2004, dated 2010)
Where a name gives a salt, the structure may show the parent alone. Read-outs that look alike come from different tables or passages of the source.

Assays:
[1] = test system: U-937 human histocytic lymphoma; assay: In vitro inhibition rate to tumor cells (MTT), U-937; format: cell-based; details: for inhibition at 50 µg/mL: Homo sapiens, U-937, 50 μg/ml, read-out: inhibition rate, Results (%) U-937; for inhibition rate, Results (%) U-937: 50 μg/ml, hydrochloride
[2] = test system: A-549 human lung adenocarcinoma; assay: In vitro inhibition rate to tumor cells (MTT), A-549; format: cell-based; details: for inhibition rate, Results (%) A-549: 50 μg/ml; for inhibition at 50 µg/mL: Homo sapiens, A549, 50 μg/ml, read-out: inhibition rate, Results (%) A-549
[3] = test system: Bel-7402 human hepatic carcinoma; assay: In vitro inhibition rate to tumor cells (MTT), Bel-7402; format: cell-based; details: for inhibition rate, Results (%) Bel-7402: 50 μg/ml; for inhibition at 50 µg/mL: Homo sapiens, Bel-7402, 50 μg/ml, read-out: inhibition rate, Results (%) Bel-7402
[4] = test system: MCF-7 human mammary adenocarcinoma; assay: In vitro inhibition rate to tumor cells (MTT), MCF-7; format: cell-based; details: for inhibition rate, Results (%) MCF-7: 50 μg/ml; for inhibition at 50 µg/mL: Homo sapiens, MCF7, 50 μg/ml, read-out: inhibition rate, Results (%) MCF-7
[5] = test system: SMMC-7721 human hepatic carcinoma; assay: In vitro inhibition rate to tumor cells (MTT), SMMC-7721; format: cell-based; details: for inhibition rate, Results (%) SMMC-7721: 50 μg/ml; for inhibition at 50 µg/mL: Homo sapiens, SMMC-7721, 50 μg/ml, read-out: inhibition rate, Results (%) SMMC-7721
[6] = test system: Hela human cervical carcinoma; assay: In vitro inhibition rate to tumor cells (MTT), Hela; format: cell-based; details: 50 μg/ml; for inhibition at 50 µg/mL: Homo sapiens, HeLa, read-out: inhibition rate, Results (%) Hela; for inhibition rate, Results (%) Hela: hydrochloride
[7] = test system: LLC mouse Lewis lung carcinoma; assay: In vitro inhibition rate to tumor cells (MTT), LLC; format: cell-based; details: 50 μg/ml; for inhibition at 50 µg/mL: Mus musculus, Lewis lung carcinoma
[8] = test system: Hela human cervical carcinoma; assay: In vitro anti-tumor IC50 (MTT), Hela; format: cell-based; details: Table 4
[9] = test system: U-937 human histocytic lymphoma; assay: In vitro anti-tumor IC50 (MTT), U-937; format: cell-based; details: Table 4
Procedure: (§1) (1) Single cell suspension was seeded into 96-well plates (the cells was diluted in the PRMI-1640 minimum medium to 3×10^4 cells/ml, […] diluted cells/well). […] The experiments were performed in quadruplicate.
(§2) (2) The medium was removed. Solutions of the anti-tumor agents (50 compounds) were prepared in a freshly prepared medium at serial concentrations. […] of the solution was added into each well. Incubation was continued for 48 hours.
(§3) (3) 20 ug of 2 mg/ml MTT was added into each well, and incubated for 4 hours.
(§4) (4) The medium was removed from the well. The microplates were swiftly turned down to throw-off the medium. […] of DMSO was added into each well, and vortexed at room temperature for 10 minutes.
(§5) (5) OD value (λ=570 nm) was measured with an Enzyme-Linked Detector.
(§6) (6) The graph of cell vitality was plotted, and IC50 was calculated.

[10] = test system: HL-60 human promyelocytic leukemia; assay: In vitro anti-tumor IC50 (MTT), HL-60; format: cell-based; details: Table 4
Procedure: as §1, §2, §3, §4, §5, §6

[11] = molecular target: T1, HIV-1 proteinase (HIV-1 PR) (Human immunodeficiency virus type 1 group M subtype B, UniProt P04585); assay: Screening for in vitro activity against HIV-1 proteinase; format: biochemical; details: for inhibition at 0.08 µg/mL / inhibition at 0.4 µg/mL / inhibition at 2 µg/mL / inhibition at 10 µg/mL: read-out: Inhibition rate
T1 construct: HIV-1 proteinase digests the fluorescent-labeled substrate; purchased
Outline: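 Inhibition was scored from product fluorescence after the enzyme was added to buffer holding the labeled substrate and the test sample. Samples were five serial 5× dilutions in water from a DMSO solution. Indinavir served as the reference control; the enzyme was recombinant HIV-1 PR.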

[12] = molecular target: T2, HIV-1 integrase (HIV-1 IN) (Human immunodeficiency virus type 1 group M subtype B, UniProt P04585); assay: Screening for the activity against HIV-1 integrase; format: biochemical
T2 construct: a purified HIV-1 integrase was added into each well; purchased
Procedure: Principle of the test: A synthetic oligonucleotide of 30 nt was used as the donor substrate. A synthetic oligonucleotide of 20 nt was used as the target substrate. A 96-well plate was covered by the donor substrate, and a purified HIV-1 integrase was added into each well. ELISA was performed to measure the product of the target DNA chain transfer. A biotin-labeled alkali phosphatase was used to visual the system. OD value was measured by an Enzyme-linked Detector. Add a sample into the reaction system for screening the inhibitor of the enzyme.
1. HIV-1 IN: commercially available.
2. Treatment of the samples: Before use, the sample was dissolved in water or DMSO at a suitable concentration, then serially diluted (5×), four serial dilutions per sample. The stock solutions of two samples were 100-fold diluted with DMSO, then 5-fold diluted, four serial dilutions per sample. Positive control: S-y, provided by Shanghai Organic Chemistry Institute.
3. The donor substrate and target substrate: synthesized by Shanghai Biological Engineering Company (Shanghai Shenggong).
4. Methods: The diluted sample was added into a 96-well plate covered by the donor substrate, and then added into the reaction buffer containing the genetic engineered target enzyme and biotin-target substrate, incubated in the optimal reaction conditions. A biotin-labeled alkali phosphatase was used to visual the system to determine the absorbance at 450 nm (OD450).

293 cells = assay: Cell status of 293 cells treated with sample alone (herpes virus screening); details: 200 μg/ml, 24 hrs
[13] = IC50, five 5× serial dilutions from 50 μg/ml
[14] = Table 2 (repeated screening), hydrochloride

C=C1CC2(OS(=O)(=O)O)OC3(CC2C(C)C)C(C)CCC13 (stereo not shown) [Compound 20, Curcumol sulfonate]
inhibition at 50 µg/mL ([1]; Table 1): 89.2% | inhibition at 50 µg/mL ([1]; Table 2 (repeated screening)): 90.3% | inhibition at 50 µg/mL ([1]; Table 3 (repeated screening)): 90% | inhibition rate, Results (%) A-549 ([2]; Table 1): 12.50% | inhibition rate, Results (%) A-549 ([2]; Table 3 (repeated screening)): 14.32% | inhibition at 50 µg/mL ([2]; Table 2 (repeated screening)): 13% | inhibition rate, Results (%) Bel-7402 ([3]; Table 2 (repeated screening)): 5.36% | inhibition rate, Results (%) Bel-7402 ([3]; Table 3 (repeated screening)): 1.23% | inhibition at 50 µg/mL ([3]; Table 1): 7.89% | inhibition rate, Results (%) MCF-7 ([4]; Table 1): 18.9% | inhibition rate, Results (%) MCF-7 ([4]; Table 2 (repeated screening)): 16.32% | inhibition rate, Results (%) MCF-7 ([4]; Table 3 (repeated screening)): 14.23% | inhibition rate, Results (%) SMMC-7721 ([5]; Table 1): 18.08% | inhibition rate, Results (%) SMMC-7721 ([5]; Table 2 (repeated screening)): 1.23% | inhibition rate, Results (%) SMMC-7721 ([5]; Table 3 (repeated screening)): 6.56% | inhibition at 50 µg/mL ([6]; Table 1): 94.2% | inhibition at 50 µg/mL ([6]; Table 2 (repeated screening)): 90.6% | inhibition at 50 µg/mL ([6]; Table 3 (repeated screening)): 92.5% | inhibition rate, Results (%) LLC ([7]; Table 2 (repeated screening)): 9.37% | inhibition rate, Results (%) LLC ([7]; Table 3 (repeated screening)): 15.32% | inhibition at 50 µg/mL ([7]; Table 1): 8.97% | IC50 ([8]; Homo sapiens, HeLa, read-out: IC50 (ug/ml) against tumor cell lines, Hela): 0.89 µg/mL | IC50 ([9]; Homo sapiens, U-937, read-out: IC50 (ug/ml) against tumor cell lines, U-937): 0.95 µg/mL | IC50 ([10]; Homo sapiens, HL-60, read-out: IC50 (ug/ml) against tumor cell lines, HL-60): 0.45 µg/mL | inhibition at 0.08 µg/mL ([11]; 0.08 μg/ml): 8.76% | inhibition at 0.4 µg/mL ([11]; 0.40 μg/ml): 7.44% | inhibition at 2 µg/mL ([11]; 2.0 μg/ml): 10.6% | inhibition at 10 µg/mL ([11]; 10 μg/ml): 9.46% | Inhibition rate ([11]; 50 μg/ml): 12.68 | IC50 [11, 13]: > 158 µM | IC50 [12]: 126 µM | Cytopathy and cell status, Sample (293 cells): Good

C=C1CC2(OC(=O)C(C)C)OC3(CC2C(C)C)C(C)CCC13 (stereo not shown) [Compound 3, Curcumol isobutyrate]
inhibition at 50 µg/mL ([1]; Table 1): 91.7% | inhibition at 50 µg/mL ([1]; Table 2 (repeated screening)): 93% | inhibition at 50 µg/mL ([2]; Table 1): 7.76% | inhibition at 50 µg/mL ([2]; Table 2 (repeated screening)): 10.3% | inhibition at 50 µg/mL ([3]; Table 1): 14.4% | inhibition at 50 µg/mL ([3]; Table 2 (repeated screening)): 11% | inhibition at 50 µg/mL ([4]; Table 1): 32.1% | inhibition at 50 µg/mL ([4]; Table 2 (repeated screening)): 22.4% | inhibition at 50 µg/mL ([5]; Table 1): 8.02% | inhibition at 50 µg/mL ([5]; Table 2 (repeated screening)): 8.96% | inhibition at 50 µg/mL ([6]; Table 1): 69.2% | inhibition at 50 µg/mL ([6]; Table 2 (repeated screening)): 70.2% | inhibition at 50 µg/mL ([7]; Table 1): 6.89% | inhibition at 50 µg/mL ([7]; Table 2 (repeated screening)): 0.02% | inhibition at 0.08 µg/mL ([11]; 0.08 μg/ml): 4.98% | inhibition at 0.4 µg/mL ([11]; 0.40 μg/ml): 13.5% | inhibition at 2 µg/mL ([11]; 2.0 μg/ml): 9.64% | inhibition at 10 µg/mL ([11]; 10 μg/ml): 12.1% | IC50 [11, 13]: > 163 µM | inhibition at 50 µg/mL ([11]; read-out: Inhibition rate, 50 μg/ml): 5.55% | IC50 [12]: 117 µM | Cytopathy and cell status, Sample (293 cells): Normal

CC(C)C1CC23OC1(O)C/C(=C\Nc1ccc(O)cc1)C2CCC3C (stereo not shown) [Compound 6, Curcumol p-hydroxy aniline hydrochloride]
inhibition rate, Results (%) U-937 ([1]; Table 1): 90.92% | inhibition rate, Results (%) U-937 ([1]; Table 2 (repeated screening)): 94.12% | inhibition at 50 µg/mL ([1]; Table 3 (repeated screening)): 94.1% | inhibition rate, Results (%) A-549 ([2]; Table 1, hydrochloride): 91.84% | inhibition rate, Results (%) A-549 [2, 14]: 92.84% | inhibition at 50 µg/mL ([2]; Table 3 (repeated screening)): 90.1% | inhibition rate, Results (%) Bel-7402 ([3]; Table 1, hydrochloride): 81.84% | inhibition rate, Results (%) Bel-7402 [3, 14]: 81.84% | inhibition at 50 µg/mL ([3]; Table 3 (repeated screening)): 83.6% | inhibition rate, Results (%) MCF-7 ([4]; Table 1, hydrochloride): 91.89% | inhibition rate, Results (%) MCF-7 [4, 14]: 91.89% | inhibition at 50 µg/mL ([4]; Table 3 (repeated screening)): 94.1% | inhibition rate, Results (%) SMMC-7721 ([5]; Table 1, hydrochloride): 86.12% | inhibition rate, Results (%) SMMC-7721 [5, 14]: 86.12% | inhibition at 50 µg/mL ([5]; Table 3 (repeated screening)): 87.1% | inhibition rate, Results (%) Hela ([6]; Table 1): 95.26% | inhibition rate, Results (%) Hela ([6]; Table 2 (repeated screening)): 95.26% | inhibition at 50 µg/mL ([6]; Table 3 (repeated screening)): 92.3% | inhibition rate, Results (%) LLC ([7]; Table 1, hydrochloride): 88.23% | inhibition rate, Results (%) LLC [7, 14]: 87.02% | inhibition at 50 µg/mL ([7]; Table 3 (repeated screening)): 85% | IC50 (ug/ml) against tumor cell lines, Hela ([8]; hydrochloride): 0.35 µg/mL | IC50 (ug/ml) against tumor cell lines, U-937 ([9]; hydrochloride): 0.56 µg/mL | IC50 (ug/ml) against tumor cell lines, HL-60 ([10]; hydrochloride): 0.51 µg/mL | Inhibition rate ([11]; 0.08 μg/ml, hydrochloride): 0.89 | Inhibition rate ([11]; 0.40 μg/ml, hydrochloride): 1.7 | Inhibition rate ([11]; 2.0 μg/ml, hydrochloride): 2.99 | Inhibition rate ([11]; 10 μg/ml, hydrochloride): 13.15 | Inhibition rate ([11]; 50 μg/ml, hydrochloride): 7.07 | IC50 ([11]; five 5× serial dilutions from 50 μg/ml): > 146 µM | Cytopathy and cell status, Sample (293 cells): Good
